Laboratory results: PubChem BioAssay AID2060495 (Molecular Pharmacology Branch, DTP, NCI, 2025)

System: 521955-158-R2-J5-PDC complex spheroid viability
Test: Anticancer human tumor 521955-158-R2-J5-PDC patient-derived pancreatic carcinoma cell line growth inhibition [GQUAD]
Conditions: for IC50: curve of first compound; for viability, T/C: stronger effect = lower value
Excerpt: DNA G-quadruplex Stabilizer Agents in Combinations in Complex Spheroids
A high-throughput screen of multi-cell type tumor spheroids was designed to identify active combinations of DNA G-quadruplex stabilizer agents and targeted small molecules. Complex spheroids include a stromal component modeled by human endothelial cells (HUVEC) and fibroblasts modeled by human mesenchymal stem cells (MSCs). The concentration ranges selected for each drug and investigational agent were based upon clinically achievable concentrations if the clinical Cmax of the agent was known.
Compounds. The drugs and investigational agents: pidnarulex (CX-5461; NSC782164), APTO-253 (NSC789042), BRACO-19 (NSC847499), peposertib (NSC802822), ceralasertib (NSC780249), elimusertib (NSC800525), camonsertib (NSC841442), AZD-1390 (NSC803789), olaparib (NSC753686), talazoparib (NSC767125), ART-558 (NSC835418), sotorasib (NSC818433), MRTX-1133 (NSC836407), SN-38 (NSC673596), topotecan (NSC609699), etoposide (NSC141540), doxorubicin (NSC123127), gemcitabine (NSC613327), 5-fluorouracil (NSC19893), paclitaxel (NSC125973), vemurafenib (NSC761431), panobinostat (NSC761190), R-306465 (JNJ-16241199; NSC773264), adavosertib (NSC754352), TP-3654 (NSC805149), carboplatin (NSC241240), KSQ-4279 (NSC840948), and staurosporine (NSC755774) were obtained from the National Cancer Institute (NCI) Developmental Therapeutics Program Chemical Repository (34). The FDA-approved anticancer drug set is available from the NCI Developmental Therapeutics Program. […] The stock solutions were prepared in dimethyl sulfoxide (DMSO, Sigma-Aldrich, St. Louis, MO, cat. D2650) at 800-fold the tested concentration and stored at -70 degrees C prior to their use. All drugs and investigational agents were tested over a range starting from a high concentration at or near the clinical Cmax and decreasing in half-log increments. If the clinical Cmax for an agent had not been determined, the highest concentration tested was 10 microM.
2.3 Cell Culture. All cells were maintained in an incubator at 37 degrees C and 5% CO2 with 95% humidity. The PDC lines were cultured according to standard operating procedures established by the NCI PDMR. All PDCs were thawed and cultured in Matrigel-coated flasks prepared with a working solution of 1X Ham's F-12 nutrient mix, without supplementation (Invitrogen, cat. 11765054), 100 U/mL penicillin-streptomycin (Invitrogen, cat. 15140122), and 2.5% Matrigel (Corning Inc., cat. 354248) for the first three passages. The 857933-349-R-J2-PDC line was cultured in 6C/Colon 1B media, which includes advanced DMEM/F-12 (Thermo Fisher Scientific, cat. 12634028), 10 mM HEPES (Thermo Fisher Scientific, cat. 15630080), 1X GlutaMAX supplement (Thermo Fisher Scientific, cat. 35050061), 0.1 mg/mL primocin (InvivoGen, cat. ant-pm-2), 10% defined fetal bovine serum, heat inactivated (HyClone Laboratories Inc., cat. SH30070.03HI), 50% L-WRN conditioned media (ATCC, cat. CRL-3276), 1.25 mM N-Acetyl-L-cysteine (Sigma-Aldrich, cat. A9165), 10 mM nicotinamide (Sigma-Aldrich, cat. N0636), 1X B-27 supplement (Thermo Fisher Scientific, cat. 17504044), 1X N-2 supplement (Thermo Fisher Scientific, cat. 17502048), 10 microM Y-27632 dihydrochloride (Tocris Bioscience, cat. 1254), and 50 ng/mL human EGF recombinant protein (Thermo Fisher Scientific, cat. PHG0311). The 485176-168-R4-J1-PDC line was cultured in Panc media, which includes all 6C/Colon 1B media components plus 100 ng/mL human FGF-10 (Thermo Fisher Scientific, cat. 100-26), 500 nM SB-431542 (Selleckchem, cat. S1067), and gastrin (Tocris, cat. 3006).
[…]

[1] = second compound 0.0316 µM, first compound 0.0316 µM
[2] = second compound 0.0316 µM, first compound 0.316 µM
[3] = second compound 0.1 µM, first compound 0.0316 µM
[4] = second compound 0.1 µM, first compound 0.316 µM
[5] = second compound 0.316 µM, first compound 0.0316 µM
[6] = second compound 0.316 µM, first compound 0.316 µM
[7] = second compound 1 µM, first compound 0.0316 µM
[8] = second compound 1 µM, first compound 0.316 µM
[9] = second compound 3.16 µM, first compound 0.0316 µM
[10] = second compound 3.16 µM, first compound 0.316 µM
[11] = second compound 10 µM, first compound 0.0316 µM
[12] = second compound 10 µM, first compound 0.316 µM
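Further: spheroids exposed to agents for one week before reading.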
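Wherever viability, T/C is given: 100% = DMSO vehicle control viability.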

## CC1COCCN1c1cc(C2(O)CC3CCC(C2)O3)c2cnn(-c3ccn[nH]3)c2n1 (centres undefined) + Cc1[nH]c2ccc(F)cc2c1-c1nc2c3cccnc3c3ncccc3c2[nH]1
Second compound 0.0316 µM
  IC50: < 31.6 nM
Second compound 0.1 µM
  IC50: < 31.6 nM
Second compound 0.316 µM
  IC50: < 31.6 nM
Second compound 1 µM
  IC50: < 31.6 nM
Second compound 3.16 µM
  IC50: < 31.6 nM
Second compound 10 µM
  IC50: < 31.6 nM
[1]
  viability, T/C: 32.6%
Second compound 0.0316 µM, first compound 0.1 µM
  viability, T/C: 10.8%
[2]
  viability, T/C: 13.3%
Second compound 0.0316 µM, first compound 1 µM
  viability, T/C: 19.7%
Second compound 0.0316 µM, first compound 3.16 µM
  viability, T/C: 19.2%
Second compound 0.0316 µM, first compound 10 µM
  viability, T/C: 8.74%
[3]
  viability, T/C: 32.5%
Second compound 0.1 µM, first compound 0.1 µM
  viability, T/C: 11.2%
[4]
  viability, T/C: 12.6%
Second compound 0.1 µM, first compound 1 µM
  viability, T/C: 19.3%
Second compound 0.1 µM, first compound 3.16 µM
  viability, T/C: 20.1%
Second compound 0.1 µM, first compound 10 µM
  viability, T/C: 8.59%
[5]
  viability, T/C: 28.1%
Second compound 0.316 µM, first compound 0.1 µM
  viability, T/C: 11.6%
[6]
  viability, T/C: 12.2%
Second compound 0.316 µM, first compound 1 µM
  viability, T/C: 16.5%
Second compound 0.316 µM, first compound 3.16 µM
  viability, T/C: 20.5%
Second compound 0.316 µM, first compound 10 µM
  viability, T/C: 7.43%
[7]
  viability, T/C: 34.3%
Second compound 1 µM, first compound 0.1 µM
  viability, T/C: 10.7%
[8]
  viability, T/C: 12.4%
Second compound 1 µM, first compound 1 µM
  viability, T/C: 17.4%
Second compound 1 µM, first compound 3.16 µM
  viability, T/C: 22.9%
Second compound 1 µM, first compound 10 µM
  viability, T/C: 10.7%
[9]
  viability, T/C: 38.7%
Second compound 3.16 µM, first compound 0.1 µM
  viability, T/C: 10.7%
[10]
  viability, T/C: 13.9%
Second compound 3.16 µM, first compound 1 µM
  viability, T/C: 22.5%
Second compound 3.16 µM, first compound 3.16 µM
  viability, T/C: 25.4%
Second compound 3.16 µM, first compound 10 µM
  viability, T/C: 8.16%
[11]
  viability, T/C: 29.5%
Second compound 10 µM, first compound 0.1 µM
  viability, T/C: 10.6%
[12]
  viability, T/C: 15%
Second compound 10 µM, first compound 1 µM
  viability, T/C: 20.7%
Second compound 10 µM, first compound 3.16 µM
  viability, T/C: 26.7%
Second compound 10 µM, first compound 10 µM
  viability, T/C: 6.74%

## CCc1c2c(nc3ccc(O)cc13)-c1cc3c(c(=O)n1C2)COC(=O)[C@]3(O)CC + Cc1[nH]c2ccc(F)cc2c1-c1nc2c3cccnc3c3ncccc3c2[nH]1
Second compound 0.0316 µM
  IC50: 1.44 nM
Second compound 0.1 µM
  IC50: 1.57 nM
Second compound 0.316 µM
  IC50: 1.52 nM
Second compound 1 µM
  IC50: 1.48 nM
Second compound 3.16 µM
  IC50: 1.81 nM
Second compound 10 µM
  IC50: 1.61 nM
Second compound 0.0316 µM, first compound 0.000999 µM
  viability, T/C: 66.5%
Second compound 0.0316 µM, first compound 0.00316 µM
  viability, T/C: 14.4%
Second compound 0.0316 µM, first compound 0.00999 µM
  viability, T/C: 8.08%
[1]
  viability, T/C: 6.13%
Second compound 0.0316 µM, first compound 0.0999 µM
  viability, T/C: 5.29%
[2]
  viability, T/C: 2.46%
Second compound 0.1 µM, first compound 0.000999 µM
  viability, T/C: 73.5%
Second compound 0.1 µM, first compound 0.00316 µM
  viability, T/C: 13.8%
Second compound 0.1 µM, first compound 0.00999 µM
  viability, T/C: 8.38%
[3]
  viability, T/C: 6.85%
Second compound 0.1 µM, first compound 0.0999 µM
  viability, T/C: 5.08%
[4]
  viability, T/C: 3.05%
Second compound 0.316 µM, first compound 0.000999 µM
  viability, T/C: 70.8%
Second compound 0.316 µM, first compound 0.00316 µM
  viability, T/C: 13.3%
Second compound 0.316 µM, first compound 0.00999 µM
  viability, T/C: 7.87%
[5]
  viability, T/C: 5.41%
Second compound 0.316 µM, first compound 0.0999 µM
  viability, T/C: 5.92%
[6]
  viability, T/C: 2.25%
Second compound 1 µM, first compound 0.000999 µM
  viability, T/C: 69.9%
Second compound 1 µM, first compound 0.00316 µM
  viability, T/C: 11.7%
Second compound 1 µM, first compound 0.00999 µM
  viability, T/C: 7.26%
[7]
  viability, T/C: 5.78%
Second compound 1 µM, first compound 0.0999 µM
  viability, T/C: 5.91%
[8]
  viability, T/C: 1.75%
Second compound 3.16 µM, first compound 0.000999 µM
  viability, T/C: 83.5%
Second compound 3.16 µM, first compound 0.00316 µM
  viability, T/C: 18.2%
Second compound 3.16 µM, first compound 0.00999 µM
  viability, T/C: 8.66%
[9]
  viability, T/C: 7.44%
Second compound 3.16 µM, first compound 0.0999 µM
  viability, T/C: 3.96%
[10]
  viability, T/C: 2.23%
Second compound 10 µM, first compound 0.000999 µM
  viability, T/C: 72.8%
Second compound 10 µM, first compound 0.00316 µM
  viability, T/C: 16.9%
Second compound 10 µM, first compound 0.00999 µM
  viability, T/C: 11.9%
[11]
  viability, T/C: 8.45%
Second compound 10 µM, first compound 0.0999 µM
  viability, T/C: 5.37%
[12]
  viability, T/C: 2.72%
